# Assay results taken from patent US11261190B2, “Dihydropyrimidine compounds and uses thereof in medicine” (SUNSHINE LAKE PHARMA CO., LTD., priority 2017, dated 2022).
# How the values were obtained:
# [1] = test system: HBV; experiment: Anti HBV activity in vitro, viral DNA from HepG2.2.15 cells quantified by qPCR; assay type: cell-based; conditions: Hepatitis B virus, qPCR of viral DNA in supernatant, read-out: EC50 against HBV replication
# Description: Test 1: Test Method of EC50 of Anti HBV
# HBV Cell Line and Culture Conditions
# HepG2.2.15 (SELLS, PNAS, 1987 and SELLS, JV, 1988) chromosomes have an integrated complete HBV genome, and stably express viral RNA and viral protein. HepG2.2.15 cells can secrete mature HBV particles, HBsAg and HBeAg to medium. HepG2.2.15 cells were cultured in DMEM containing 10% fetal bovine serum, 100 U/mL penicillin, 100 U/mL streptomycin, 1% non essential amino acid, 1 mM sodium pyruvate and 300 µg/mL G418.
# Viral particles DNA secreted from HepG2.2.15 cells can be quantified by qPCR, and the effect of the compound on viral replication can be detected.
# Test of Anti HBV Activity In Vitro
# 8000 HepG 2.2.15 cells per well were seeded into a 96-well plate, the plate was cultured at 37° C. and 5% CO2 for 3 days till the cells grew to full wells. Old liquid medium can be removed and replaced with new medium (200 μL) on day 0.
# Formulating the compound and treating the cells in the experiment of anti virus: the compound was dissolved in DMSO to a concentration of 30 mM, and then the compound solution was diluted with DMSO to a concentration of […], and then eight dilutions at 4 fold were performed, the highest concentration is 800 μM. The serial diluted compound was added to the above plate at 1 μL per well, the highest final concentration in the experiment is 4 μM (200 fold dilution). TDF (tenofovir dipiroxil fumarate, Selleck, Cat S1400) has a highest concentration of 4 μM as a positive control. 1 μL of DMSO was added in to the positive control well at a final concentration of 0.5%, TDF was added in to the positive control well at a final concentration of 1 μM.
# Detection of Viral Genomic DNA by qPCR
# Primer: HBV-For-202, […]; HBV-Rev-315, […]. Copies of virus can be calculated using a standard curve plotted by using plasmid containing HBV genome and using SYBR Premix Ex Taq II Takara DRR081S kit and 1 μL cell culture supernatant as a template. EC50 values of the compound on viral replication were calculated by a four parametric nonlinear regression model using Graphpad Prism 5 software to manage concentration—viral copy number.
# [2] = Cytotoxicity in HepG2.2.15 cells (CellTiter Glo); assay type: cell-based; conditions: human, highest concentration 150 μM
# Description: Test 2: Cytotoxicity and Selectivity Index
# Methods of Testing Cytotoxicity and Selectivity Index
# The serial diluted compound was added to a 384 wells plate at 50 μL HepG2.2.15 cell per well (3000 cells per well), the highest final concentration in the experiment is 150 μM (200 fold dilution). The plate was cultured at 37° C. in an incubator with C02 for 4 days, and cytotoxicity of the compound was detected using CellTiter Glo agent.
# The cytotoxicity of the compound was calculated using the following formulate, cytotoxicity (%)=100−(detection value/mean of DMSO control wells values×100). CC50 values were calculated by a four parametric nonlinear regression model using Graphpad Prism 5 software to manage concentration−cytotoxicity (%). […]
SMILES,EC50 [1] [nM],CC50 at 4 days [2] [nM]
"CCOC(=O)C1=C(CN2CCN3C(=O)N(c4ccc(CC(C)(C)C(=O)O)cc4)C[C@@H]3C2)NC(c2nccs2)=N[C@H]1c1ccc(F)cc1Cl [Example 29, 3-(4-((S)-7-(((R)-6-(2-chloro-4-fluorophenyl)-5-(ethoxycarbonyl)-2-(thiazol-2-yl)-3,6-dihydropyrimidin-4-yl)methyl)-3-oxohexahydroimidazo[1,5-a]pyrazin-2(3H)-yl)phenyl)-2,2-dimethylpropionic Acid]",6,> 150000
"COC(=O)C1=C(CN2CCN3C(=O)N(c4ccc(CC(=O)O)cc4)C[C@@H]3C2)NC(c2nccs2)=N[C@H]1c1ccc(Cl)cc1Cl [Example 27, 2-(4-((S)-7-(((R)-6-(2,4-dichlorophenyl)-5-(methoxycarbonyl)-2-(thiazol-2-yl)-3,6-dihydropyrimidin-4-yl)methyl)-3-oxohexahydroimidazo[,5-a]pyrazin-2(3H)-yl)phenyl)acetic Acid]",7,> 150000
"CCOC(=O)C1=C(CN2CCN3C(=O)N(c4ccc(CCC(=O)O)cc4)C[C@@H]3C2)NC(c2nccs2)=N[C@H]1c1ccc(F)cc1Br [Example 22, 3-(4-((S)-7-(((R)-6-(2-bromo-4-fluorophenyl)-5-(ethoxycarbonyl)-2-(thiazol-2-yl)-3,6-dihydropyrimidin-4-yl)methyl)-3-oxohexahydroimidazo[1,5-a]pyrazin-2(3H)-yl)phenyl)prop ionic Acid]",5,> 150000
"COC(=O)C1=C(CN2CCN3C(=O)N(c4ccc(CC(C)C(=O)O)cc4)C[C@@H]3C2)NC(c2nccs2)=N[C@H]1c1ccc(F)cc1Cl (stereo partly drawn) [Example 18, 3-(4-((S)-7-(((R)-6-(2-chloro-4-fluorophenyl)-5-(methoxycarbonyl)-2-(thiazol-2-yl)-3,6-dihydropyrimidin-4-yl)methyl)-3-oxohexahydroimidazo[1,5-a]pyrazin-2(3H)-yl)phenyl)-2-methylpropionic Acid]",4,> 150000
"COC(=O)C1=C(CN2CCN3C(=O)N(c4cccc(CCC(=O)O)c4)C[C@@H]3C2)NC(c2nccs2)=N[C@H]1c1ccc(F)cc1Cl [Example 37, 3-(3-((S)-7-(((R)-6-(2-chloro-4-fluorophenyl)-5-(methoxycarbonyl)-2-(thiazol-2-yl)-3,6-dihydropyrimidin-4-yl)methyl)-3-oxohexahydroimidazo[1,5-a]pyrazin-2(3H)-yl)phenyl)propionic Acid]",5,> 150000
CCOC(=O)C1=C(CN2CCN3C(=O)N(c4ccc(CC(C)(C)C(=O)O)cc4)C[C@@H]3C2)NC(c2nccs2)=N[C@H]1c1ccc(F)cc1Br [Example 28],5,> 150000
"COC(=O)C1=C(CN2CCN3C(=O)N(c4ccc(C(C)=O)cc4F)C[C@@H]3C2)NC(c2nccs2)=N[C@H]1c1ccc(F)cc1Cl [Example 32, (R)-methyl 6-(((S)-2-(4-acetyl-2fluorophenyl)-3-oxohexahydroimidazo[1,5-a]pyrazin-7(1H)-yl)methyl)-4-(2-chloro-4-fluorophenyl)-2-(thiazol-2-yl)-1,4-dihydropyrimidine-5-carboxylate]",6,> 150000
"COC(=O)C1=C(CN2CCN3C(=O)N(c4ccc(C(C)=O)cc4)C[C@@H]3C2)NC(c2nccs2)=N[C@H]1c1ccc(F)cc1Cl [Example 31, (R)-methyl 6-(((S)-2-(4-acetylphenyl)-3-oxohexahydroimidazo[1,5-a]pyrazin-7(1H)-yl)methyl)-4-(2-chloro-4-fluorophenyl)-2-(thiazol-2-yl)-1,4-dihydropyrimidine-5-carboxy late]",4,> 150000
"COC(=O)C1=C(CN2CCN3C(=O)N(c4ccc(C(C)(C)C(=O)O)cc4)C[C@@H]3C2)NC(c2nccs2)=N[C@H]1c1ccc(F)cc1Cl [Example 15, 2-(4-((S)-7-(((R)-6-(2-chloro-4-fluorophenyl)-5-(methoxycarbonyl)-2-(thiazol-2-yl)-3,6-dihydropyrimidin-4-yl)methyl)-3-oxohexahydroimidazo[1,5-a]pyrazin-2(3H)-yl)phenyl)-2-methylpropionic Acid]",5,> 150000
"COC(=O)C1=C(CN2CCN3C(=O)N(c4cccc(C(C)(C)C(=O)O)c4)C[C@@H]3C2)NC(c2nccs2)=N[C@H]1c1ccc(F)cc1Cl [Example 38, 2-(3-((S)-7-(((R)-6-(2-chloro-4-fluorophenyl)-5-(methoxycarbonyl)-2-(thiazol-2-yl)-3,6-dihydropyrimidin-4-yl)methyl)-3-oxohexahydroimidazo[1,5-a]pyrazin-2(3H)-yl)phenyl)-2-methylpropionic Acid]",15,> 150000
"COC(=O)C1=C(CN2CCN3C(=O)N(c4ccc(CCCNS(C)(=O)=O)cc4)C[C@@H]3C2)NC(c2nccs2)=N[C@H]1c1ccc(F)cc1Cl [Example 49, (R)-methyl 4-(2-chloro-4-fluorophenyl)-6-(((S)-2-(4-(3-(methylsulfonylamino)propyl)phenyl)-3-oxohexahydroimidazo[1,5-a]pyrazin-7(1H)-yl)methyl)-2-(thiazol-2-yl)-1,4-dihydropyrimidin-5-carboxylate]",12,> 150000
"COC(=O)C1=C(CN2CCN3C(=O)N(c4ccc(/C=C/C(=O)O)cc4)C[C@@H]3C2)NC(c2nccs2)=N[C@H]1c1ccc(F)cc1Cl [Example 47, (E)-3-(4-((S)-7-(((R)-6-(2-chloro-4-fluorophenyl)-5-(methoxycarbonyl)-2-(thiazol-2-yl)-3,6-dihydropyrimidin-4-yl)methyl)-3-oxohexahydroimidazo[1,5-a]pyrazin-2(3H)-yl)phenyl)acrylic Acid]",3,> 150000
"COC(=O)C1=C(CN2CCN3C(=O)N(c4ccc(C(C)(C)C(=O)O)cc4F)C[C@@H]3C2)NC(c2nccs2)=N[C@H]1c1ccc(F)cc1Cl [Example 33, 2-(4-((S)-7-(((R)-6-(2-chloro-4-fluorophenyl)-5-(methoxycarbonyl)-2-(thiazol-2-yl)-3,6-dihydropyrimidin-4-yl)methyl)-3-oxohexahydroimidazo[1,5-a]pyrazin-2(3H)-yl)-3-fluorophenyl)-2-methylpropionic Acid]",25,> 150000
"COC(=O)C1=C(CN2CCN3C(=O)N(c4ccc(CCC(N)=O)cc4)C[C@@H]3C2)NC(c2nccs2)=N[C@H]1c1ccc(F)cc1Cl [Example 48, (R)-methyl 6-(((S)-2-(4-(3-amino-3-oxopropyl)phenyl)-3-oxohexahydroimidazo[1,5-a]pyrazin-7(1H)-yl)methyl)-4-(2-chloro-4-fluorophenyl)-2-(thiazol-2-yl)-1,4-dihydropyrimidine-5-carboxylate]",10,> 150000
"COC(=O)C1=C(CN2CCN3C(=O)N(Cc4ccc(CC(=O)O)cc4)C[C@@H]3C2)NC(c2nccs2)=N[C@H]1c1ccc(F)cc1Cl [Example 21, 2-(4-(((S)-7-(((R)-6-(2-chloro-4-fluorophenyl)-5-(methoxycarbonyl)-2-(thiazol-2-yl)-3,6-dihydropyrimidin-4-yl)methyl)-3-oxohexahydroimidazo[1,5-a]pyrazin-2(3H)-yl)methyl)phenyl)acetic Acid]",22,110000
"COC(=O)C1=C(CN2CCN3C(=O)N(c4ccc(C(CC(=O)O)NC(=O)OC(C)(C)C)cc4)C[C@@H]3C2)NC(c2nccs2)=N[C@H]1c1ccc(F)cc1Cl (stereo partly drawn) [Example 16, 3-((tert-butoxycarbonyl)amino)-3-(4-((S)-7-(((R)-6-(2-chloro-4-fluorophenyl)-5-(methoxycarbonyl)-2-(thiazol-2-yl)-3,6-dihydropyrimidin-4-yl)methyl)-3-oxohexahydroimidazo[1,5-a]pyrazin-2 (3H)-yl)phenyl)propanoic Acid]",14,> 150000
"COC(=O)C1=C(CN2CCN3C(=O)N(c4ccc(CCC(=O)O)cc4)C[C@@H]3C2)NC(c2nccs2)=N[C@H]1c1ccc(Cl)cc1Cl [Example 24, 3-(4-((S)-7-(((R)-6-(2,4-dichlorophenyl)-5-(methoxycarbonyl)-2-(thiazol-2-yl)-3,6-dihydropyrimidin-4-yl)methyl)-3-oxohexahydroimidazo[1,5-a]pyrazin-2 (3H)-yl)phenyl)propionic Acid]",4,> 150000
